# From PMC4865820, “Branched Peptide, B2088, Disrupts the Supramolecular Organization of Lipopolysaccharides and Sensitizes the Gram-negative Bacteria” (Scientific Reports, 2016)
# How the values were obtained:
# P. aeruginosa DR4877/07 [1] = test: microbe, parasite or virus in culture; details: Pseudomonas aeruginosa, DR4877/07, 24 h, read-out: MIC of antibiotics
# Description: (§1) MIC of each peptide was determined using the microdilution method in a 96 well microtitre plates (SPL Life Sciences Co., Ltd, Korea). Two-fold serial dilutions of each peptide in Mueller-Hinton Broth (MHB) was prepared from a 1 mg/ml stock solution of the peptide in the same broth, to obtain a final concentration in the range of 0.0976–50 μg/ml in each well. Bacterial suspensions (P. aeruginosa ATCC 27853, P. aeruginosa 4877, P. aeruginosa 23155, K. pneumoniae ATCC 10031 and K. pneumoniae 4299) were prepared by suspending the overnight cultured bacteria in saline and adjusting the inoculum to ~10^8 colony forming units (CFU) per ml. A further 150-fold dilution was then prepared in MHB to achieve a final cell density of 10^5–10^6 CFU/ml. In each well, 100 μl of inoculum was mixed with the equal volume of peptides at their 2× concentration. Positive and negative controls contained 200 μl of inoculum (without any peptide) and broth alone (no peptide/inoculum) respectively. Another negative control in which MHB containing 200 μl of peptide alone in its highest concentration tested (50 μg/ml) was also included to ensure that the optical density measured in the test wells was not due to turbidity of the peptides in solution. The 96 well polystyrene plates were then incubated at 37 °C for 24 h and the optical density at 600 nm (OD600) was measured every 30 min continuously using a TECAN microplate reader (TECAN Infinite 200, Austria).
# K. pneumoniae 31158 = test: microbe, parasite or virus in culture; assay type: cell-based; details: Klebsiella pneumoniae, 31158; individual peptide/antibiotics; read-out: MIC against K. pneumoniae 31158
# K. pneumonia 4299 [2] = test: microbe, parasite or virus in culture; assay type: cell-based, K. pneumoniae; details: Klebsiella pneumoniae, 4299; individual peptide/antibiotics; read-out: MIC against K. pneumoniae 4299
# How it was run: (§2)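 Peptides two-fold diluted in Mueller-Hinton Broth (0.0976–50 μg/ml final) against 10^5–10^6 CFU/ml inoculum, 37 °C for 24 h with OD600 monitored every 30 min. MIC = lowest concentration with no visible growth; two independent duplicates.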
# K. pneumoniae 07955 = test: microbe, parasite or virus in culture; assay type: cell-based; details: Klebsiella pneumoniae, 07955; individual peptide/antibiotics; read-out: MIC against K. pneumoniae 07955
# K. pneumonia 07955 = test: Checkerboard assay; assay type: cell-based, K. pneumoniae; details: for Fractional inhibitory concentration of B2088 used for FICI calculation: first number in parenthesis, in combination with the labelled antibiotic; for Fractional inhibitory concentration of antibiotic used for FICI calculation: second number in parenthesis, in combination with B2088
# Description: (§3) The synergism between peptides with conventional antibiotics was evaluated using checkerboard assays. For a comparison polymyxin B (PMB) was also tested against each antibiotic. From their stock solutions, two-fold dilutions of each antibiotic and peptide to 1× MIC were prepared in MHB. 50 μl of each peptide concentration was added into the wells of a 96-well polystyrene plates (SPL Life Sciences Co. Ltd, Korea) in a horizontal orientation and the same volume of each antibiotic concentration were then added in a vertical orientation. Bacterial suspensions were prepared in MHB to yield final cell density of ~10^6 CFU/ml and 100 μl of bacterial suspension was mixed with each peptide-antibiotic combinations. This procedure was repeated for wells containing 200 μl of peptide alone and 200 μl of antibiotic alone in various concentrations. The positive and negative controls contained 200 μl of inoculum and MHB alone respectively. The plates were incubated at 37 °C for 24 hours and the optical density at 600 nm (OD600) was monitored as before. Fractional inhibitory concentration index (FICI) for all antibiotic- peptide combinations was calculated through the summation of (MIC of peptide in the combination/ MIC of peptide alone) and (MIC of antibiotics in combination/MIC of antibiotic alone). The experiments were performed in two independent duplicates and the combinations that gave the lowest FICI values was reported.
# K. pneumonia 4299 [3] = test: Checkerboard assay; assay type: cell-based, K. pneumoniae; details: for Fractional inhibitory concentration of B2088 used for FICI calculation: first number in parenthesis, in combination with the labelled antibiotic; for Fractional inhibitory concentration of antibiotic used for FICI calculation: second number in parenthesis, in combination with B2088
# Description: as §3
# K. pneumonia 31158 = test: Checkerboard assay; assay type: cell-based, K. pneumoniae; details: for Fractional inhibitory concentration of B2088 used for FICI calculation: first number in parenthesis, in combination with the labelled antibiotic; for Fractional inhibitory concentration of antibiotic used for FICI calculation: second number in parenthesis, in combination with B2088
# Description: as §3
# P. aeruginosa DR4877/07 [4] = assay type: cell-based; details: for FICI of B2088-antibiotic combination: lowest FICI reported, two independent duplicates; for Fold decrease in the MIC of antibiotics at sub-lethal/sub-inhibitory concentrations of B2088: multidrug resistant P. aeruginosa 4877
# How it was run: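 Checkerboard combinations of peptide and antibiotic, each 2-fold diluted up to 1× MIC in MHB, were tested against ~10^6 CFU/ml final inoculum. Plates were incubated 24 h at 37 °C, with growth read at OD600. FICI was the sum of the combination-to-alone MIC ratios for each agent, and the lowest FICI from duplicate experiments was reported.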
# [5] = system: E. coli D21 and LPS outer core polysaccharide truncated mutant strains; test: MIC ratio against LPS-truncated E. coli mutants; assay type: cell-based; details: oligosaccharide-truncated mutants vs wild type D21; increase seen against D21e9 lacking outer core polysaccharides
# From the text: LPS is a complex glycosylated lipid molecule comprising of a hydrophobic lipid A and core oligosaccharides. The core oligosaccharides are structurally divided into an inner core (lipid A proximal) region and an outer core O-antigen region (Fig. 4a). To ascertain if the alterations in OM polysaccharides modify the barrier penetration and antimicrobial properties of the peptides, we determined the MIC of the peptides against 4 cell-wall defective mutants of E. coli (Fig. 4a). We report the MIC ratio (i.e., MICmut/MICwt) which is the ratio of MIC of peptides/antibiotics against oligosaccharides truncated mutant strains over MIC of wild type (D21) strains. For antibiotics that access intracellular targets through porin pathways or peptides that bind to the lipid A part of the LPS, the MIC ratio is independent of LPS truncation (Fig. 4b). However, antibiotics or peptides which interact with outer or inner core polysaccharides of the LPS are expected to show changes in the MIC ratio.
# All the peptide congeners were purchased from M/s. Mimotopes Pty Ltd, Australia. The peptides were used as such and the homogeneity of peptides were confirmed by HPLC. Unless otherwise stated all the chemicals and the antibiotics tested were purchased from Sigma Aldrich (Singapore) Pte Ltd. The florescent probe, BODIPY TR cadaverine (BC) was purchased from Molecular Probes/ Invitrogen (CA, USA). E. coli LPS outer core polysaccharide truncated mutant strains were obtained from CGSG, The Coli Genetic Stock Centre, Yale University, […], USA. Relevant genotype of the strains are, D21 (rfa+); D21e19 (rfa-11) is a deficient mutant in carbohydrates close to the O-antigen part; D21e7 (rfa-1) is deficient in galactose as well as O-antigen; D21f1 (rfa-1, rfa21) lacks phosphate groups in the LPS has glucose and heptose intact; D21f2 (rfa-1, rfa-31) is deficient in heptose of the inner core[57][58].
# as §1, with “Austria). All the experiments were performed in two independent duplicates and the MIC was determined as the lowest peptide concentration in which no visible growth was observed.” for “Austria).”
# P. aeruginosa ATCC 9027 [6] = test: Checkerboard assay; assay type: cell-based
# Description: as §3
# P. aeruginosa ATCC 27853 = test: microbe, parasite or virus in culture; assay type: cell-based; details: Pseudomonas aeruginosa, ATCC27853; antibiotic alone; read-out: MIC of gentamicin against this strain
# How it was run: as §2
# P. aeruginosa ATCC 9027 [7] = test: MIC, microdilution; assay type: cell-based
# [8] = MIC of B2088 6.25 μg/ml, MHB, ~10^6 CFU/ml, 37 °C, 24 h
Structure (SMILES),MIC (P. aeruginosa DR4877/07 [1]),MIC (K. pneumoniae 31158),MIC (K. pneumonia 4299 [2]),MIC (K. pneumoniae 07955),Fractional Inhibitory Concentration Index of B2088 with the antibiotic (K. pneumonia 07955),Fractional inhibitory concentration of B2088 used for FICI calculation (K. pneumonia 07955),Fractional inhibitory concentration of antibiotic used for FICI calculation (K. pneumonia 07955),Fractional Inhibitory Concentration Index of B2088 with the antibiotic (K. pneumonia 4299 [3]),Fractional inhibitory concentration of B2088 used for FICI calculation (K. pneumonia 4299 [3]),Fractional inhibitory concentration of antibiotic used for FICI calculation (K. pneumonia 4299 [3]),Fractional Inhibitory Concentration Index of B2088 with the antibiotic (K. pneumonia 31158),Fractional inhibitory concentration of B2088 used for FICI calculation (K. pneumonia 31158),Fractional inhibitory concentration of antibiotic used for FICI calculation (K. pneumonia 31158),MIC of antibiotics in the presence of ¼× sub-MIC of B2088 (P. aeruginosa DR4877/07 [4]; [8]),MIC of antibiotics in the presence of ½× sub-MIC of B2088 (P. aeruginosa DR4877/07 [4]; [8]),FICI of B2088-antibiotic combination (P. aeruginosa DR4877/07 [4]),Fold decrease in the MIC of antibiotics at sub-lethal/sub-inhibitory concentrations of B2088 (P. aeruginosa DR4877/07 [4]),MIC ratio (MICmut/MICwt) [5],further results
O=C(N[C@H](CO)[C@H](O)c1ccc([N+](=O)[O-])cc1)C(Cl)Cl [Chloramphenicol],200 µg/mL,3.12 µg/mL,12.5 µg/mL,50 µg/mL,0.38,0.13,0.25,0.38,0.13,0.25,0.63,0.5,0.13,50 µg/mL,25 µg/mL,0.5,4 fold,marked increase,FICI of polymyxin B-antibiotic combination (P. aeruginosa DR4877/07 [4]): 0.63; MIC of antibiotics in the presence of ⅛× sub-MIC of B2088 (P. aeruginosa DR4877/07 [4]; [8]): 100 µg/mL
CNC(C)C1CCC(N)C(OC2C(N)CC(N)C(OC3OCC(C)(O)C(NC)C3O)C2O)O1 (stereo not drawn) [Gentamicin],–,0.05 µg/mL,0.39 µg/mL,100 µg/mL,0.75,0.25,0.5,0.37,0.125,0.25,0.31,0.25,0.06,–,–,–,4 fold,marked increase,"FICI of polymyxin B-antibiotic combination (P. aeruginosa ATCC 9027 [6]; Gentamycin): 1.0; MIC of antibiotics in the presence of ½ × sub-MIC of Polymyxin B (P. aeruginosa ATCC 9027 [6]; Gentamycin): 0.195 µg/mL; MIC of antibiotics in the presence of ¼× sub-MIC of B2088 (P. aeruginosa ATCC 9027 [6]; gentamicin): 0.098 µg/mL; MIC of antibiotics in the presence of ½× sub-MIC of B2088 (P. aeruginosa ATCC 9027 [6]; gentamicin): 0.024 µg/mL; MIC of antibiotics in the presence of ⅛× sub-MIC of B2088 (P. aeruginosa ATCC 9027 [6]; gentamicin): 0.195 µg/mL; FICI of B2088-antibiotic combination (P. aeruginosa ATCC 9027 [6]; gentamicin, lowest FICI reported): 0.5; MIC (P. aeruginosa ATCC 27853): 0.04 µg/mL; MIC of antibiotics (Table S1) (P. aeruginosa ATCC 9027 [7]; Gentamycin alone, ATCC 9027): 0.39 µg/mL; MIC of antibiotics (P. aeruginosa ATCC 9027 [7]; gentamicin alone, ATCC 9027 used because DR4877/07 too resistant): 0.39 µg/mL"
"CC1(C)S[C@@H]2[C@H](NC(=O)C(C(=O)O)c3ccccc3)C(=O)N2[C@H]1C(=O)O (stereo partly drawn) [Carbenicillin, reference compound]",1600 µg/mL,–,–,–,–,–,–,–,–,–,–,–,–,800 µg/mL,200 µg/mL,0.63,–,did not show any change,–
